The source of these data is ChEMBL document CHEMBL1149398, “Pyrrolizidine esters and amides as 5-HT4 receptor agonists and antagonists” (J Med Chem, 2006).

Structures are written as SMILES. Activity calls are given as the source filed them. The calls are words filed in the database; no cut-off is given here.

In data set [1] the target is T1, 5-hydroxytryptamine receptor 4 (Rattus norvegicus, UniProt Q62758). Briefly: Antagonism at 5HT4 receptor in rat tunica muscularis mucosa. It is filed as functional, tissue-based. As to conditions: read-out: pA2 (converted).
Data set [2] deals with Canis familiaris. Description: Effect on solid gastric emptying in iv dosed dog. The class given is functional.
The target in data set [3] is T1, 5-hydroxytryptamine receptor 4. Briefly: Agonism at 5HT4 receptor in rat tunica muscularis mucosa. The class given is functional.
The subject of data set [4] is Salmonella typhi. Briefly: Mutagenic activity in a GLP study using Salmonella Typhimurium TA100 in presence of S9 fraction at 10-5000 ug/plate. The class given is toxicity, organism-based. As to conditions: salmonella enterica subsp. enterica […].
The target in the next data set is D(2) dopamine receptor (Homo sapiens, UniProt P14416). Description: Binding affinity to dopamine receptor D2.
Data set [5] concerns Canis familiaris. Briefly: Contractile response of the antrum in iv dosed fasted dog. As to conditions: Canis lupus familiaris. The class given is functional.
The target in data set [6] is T2, 5-hydroxytryptamine receptor 4 (Cavia porcellus, UniProt O70528). Briefly: Inhibition of [3H]GR-113808 binding to 5HT4 receptor in guinea pig striatum at 500 nM. It is filed as tissue-based.
Data set [7] deals with T3, Serotonin 3 receptor (5HT3) (Mus musculus) (UniProt Q9JHJ5+P23979). Briefly: Antagonism at 5HT3 receptor in mice by von Bezold-Jarisch reflex inhibition at 3 mg/kg, ip. The class given is functional, organism-based. The arrangement: dose 3 mg/kg.
Data set [8] concerns the target T3, Serotonin 3 receptor (5HT3) (Mus musculus). Briefly: Antagonism at 5HT3 receptor in mice by von Bezold-Jarisch reflex inhibition at 10 mg/kg, ip. It is filed as functional, organism-based. The arrangement: dose 10 mg/kg.
Data set [9] relates to Salmonella typhi. Description: Mutagenic activity in a GLP study using Salmonella Typhimurium TA97 in presence of S9 fraction at 10-5000 ug/plate. The conditions noted are these: salmonella enterica subsp. enterica […]. The class given is toxicity, organism-based.
In data set [10] the test system is Salmonella typhi. Description: Mutagenic activity in a GLP study using Salmonella Typhimurium TA98 in presence of S9 fraction at 10-5000 ug/plate. The conditions noted are these: salmonella enterica subsp. enterica […]. It is filed as toxicity, organism-based.
For data set [11], the system named is Salmonella typhi. Briefly: Mutagenic activity in a GLP study using Salmonella Typhimurium TA1535 in presence of S9 fraction at 10-5000 ug/plate. The class given is toxicity, organism-based. The conditions noted are these: salmonella enterica subsp. enterica […].
Data set [12] has as its target T3, Serotonin 3 receptor (5HT3) (Mus musculus). Briefly: Antagonism at 5HT3 receptor in mice by von Bezold-Jarisch reflex inhibition at 1 mg/kg, ip. The class given is functional, organism-based. The arrangement: dose 1 mg/kg.
Data set [13] deals with Salmonella typhi. Briefly: Mutagenic activity in a GLP study using Salmonella Typhimurium TA1538 in presence of S9 fraction at 10-5000 ug/plate. It is filed as toxicity, organism-based. The conditions noted are these: salmonella enterica subsp. enterica […].
Data set [14] has as its target 5-hydroxytryptamine receptor 4 (Rattus norvegicus) (UniProt Q62758). Description: Antagonism at 5HT4 receptor in rat tunica muscularis mucosa upto 100-1000 nM. The class given is functional, tissue-based.
The target in data set [15] is T2, 5-hydroxytryptamine receptor 4. Description: Displacement of [3H]GR-113808 from 5HT4 receptor in guinea pig striatum.
Data set [16] has as its target T3, Serotonin 3 receptor (5HT3) (Mus musculus). Description: Antagonism at 5HT3 receptor in mice by von Bezold-Jarisch reflex inhibition at 1000 mg/kg, ip. The arrangement: dose 1000 mg/kg. The class given is functional, organism-based.
In data set [17] the target is 5-hydroxytryptamine receptor 4 (Rattus norvegicus) (UniProt Q62758). Briefly: Antagonism at 5HT4 receptor in rat tunica muscularis mucosa at 0.1 uM. It is filed as functional, tissue-based.
The target in data set [18] is T4, Serotonin 3 (5-HT3) receptor (Rattus norvegicus, UniProt P35563+Q9JJ16).
T4 sequence (P35563 whole entry): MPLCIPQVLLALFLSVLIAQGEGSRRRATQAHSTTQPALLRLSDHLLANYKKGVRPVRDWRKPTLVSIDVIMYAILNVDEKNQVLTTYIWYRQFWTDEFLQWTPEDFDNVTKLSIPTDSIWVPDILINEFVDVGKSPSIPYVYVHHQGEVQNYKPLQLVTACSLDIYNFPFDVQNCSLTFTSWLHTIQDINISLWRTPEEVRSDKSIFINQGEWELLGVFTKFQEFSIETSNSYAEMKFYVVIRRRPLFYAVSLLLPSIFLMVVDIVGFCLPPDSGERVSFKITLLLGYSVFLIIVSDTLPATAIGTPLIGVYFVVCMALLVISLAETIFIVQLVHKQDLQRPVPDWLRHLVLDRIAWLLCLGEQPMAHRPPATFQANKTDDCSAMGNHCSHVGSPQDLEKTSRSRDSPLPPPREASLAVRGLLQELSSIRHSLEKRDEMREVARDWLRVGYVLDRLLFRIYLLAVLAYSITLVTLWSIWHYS
T4 sequence (Q9JJ16 whole entry): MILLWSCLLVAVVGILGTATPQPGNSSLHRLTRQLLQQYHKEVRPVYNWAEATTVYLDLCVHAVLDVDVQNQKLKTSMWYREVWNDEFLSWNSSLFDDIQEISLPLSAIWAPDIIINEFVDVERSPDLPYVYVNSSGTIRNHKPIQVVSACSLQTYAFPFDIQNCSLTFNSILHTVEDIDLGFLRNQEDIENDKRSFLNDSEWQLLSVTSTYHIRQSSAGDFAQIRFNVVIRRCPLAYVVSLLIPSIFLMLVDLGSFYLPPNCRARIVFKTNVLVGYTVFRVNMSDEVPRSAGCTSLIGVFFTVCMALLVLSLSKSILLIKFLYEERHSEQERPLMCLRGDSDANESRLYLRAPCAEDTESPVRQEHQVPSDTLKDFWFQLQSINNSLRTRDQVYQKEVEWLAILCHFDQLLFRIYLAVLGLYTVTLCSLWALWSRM
Briefly: Displacement of [3H]GR65630 from 5HT3 receptor in brain cortex from Wistar rat. It is filed as tissue-based.

Data set [19] deals with T3, Serotonin 3 receptor (5HT3) (Mus musculus). Briefly: Antagonism at 5HT3 receptor in mice by von Bezold-Jarisch reflex inhibition at 0.3 mg/kg, ip. The class given is functional, organism-based. The arrangement: dose 0.3 mg/kg.
The target in data set [20] is Beta-2 adrenergic receptor (Homo sapiens, UniProt P07550). Briefly: Binding affinity to adrenergic beta-2 receptor.
For data set [21], the target named is Beta-1 adrenergic receptor (Homo sapiens, UniProt P08588). Description: Binding affinity to adrenergic beta-1 receptor.
A further data set concerns the target D(1A) dopamine receptor (Homo sapiens, UniProt P21728). Description: Binding affinity to dopamine receptor D1.
A short description of data set [22]: Binding affinity to 5HT1 receptor.
[23] abbreviates: Canis lupus familiaris, Stomach.

Chain of D(2) dopamine receptor (P14416 whole entry): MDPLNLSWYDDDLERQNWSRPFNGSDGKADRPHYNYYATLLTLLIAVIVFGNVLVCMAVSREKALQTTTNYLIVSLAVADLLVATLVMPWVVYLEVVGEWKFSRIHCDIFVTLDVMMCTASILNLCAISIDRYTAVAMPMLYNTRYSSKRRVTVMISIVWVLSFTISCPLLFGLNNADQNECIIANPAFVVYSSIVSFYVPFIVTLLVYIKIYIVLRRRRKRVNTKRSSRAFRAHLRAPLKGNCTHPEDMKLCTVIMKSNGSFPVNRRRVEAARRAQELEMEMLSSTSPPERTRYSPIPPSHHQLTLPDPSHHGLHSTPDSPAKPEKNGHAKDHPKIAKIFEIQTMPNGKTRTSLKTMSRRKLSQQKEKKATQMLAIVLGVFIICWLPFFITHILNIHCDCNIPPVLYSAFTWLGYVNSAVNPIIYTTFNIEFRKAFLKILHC
T2 sequence (O70528 whole entry): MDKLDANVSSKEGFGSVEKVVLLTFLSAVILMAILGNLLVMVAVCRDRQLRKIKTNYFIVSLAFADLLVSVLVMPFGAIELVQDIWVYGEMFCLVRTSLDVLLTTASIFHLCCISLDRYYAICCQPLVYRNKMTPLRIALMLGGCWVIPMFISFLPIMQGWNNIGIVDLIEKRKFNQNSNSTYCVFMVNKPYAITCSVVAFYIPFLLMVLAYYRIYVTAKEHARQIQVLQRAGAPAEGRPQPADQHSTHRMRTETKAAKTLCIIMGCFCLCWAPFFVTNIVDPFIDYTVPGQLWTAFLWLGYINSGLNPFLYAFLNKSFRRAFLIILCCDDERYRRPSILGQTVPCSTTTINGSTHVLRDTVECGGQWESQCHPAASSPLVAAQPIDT
T3 sequence (P23979 whole entry, looked up): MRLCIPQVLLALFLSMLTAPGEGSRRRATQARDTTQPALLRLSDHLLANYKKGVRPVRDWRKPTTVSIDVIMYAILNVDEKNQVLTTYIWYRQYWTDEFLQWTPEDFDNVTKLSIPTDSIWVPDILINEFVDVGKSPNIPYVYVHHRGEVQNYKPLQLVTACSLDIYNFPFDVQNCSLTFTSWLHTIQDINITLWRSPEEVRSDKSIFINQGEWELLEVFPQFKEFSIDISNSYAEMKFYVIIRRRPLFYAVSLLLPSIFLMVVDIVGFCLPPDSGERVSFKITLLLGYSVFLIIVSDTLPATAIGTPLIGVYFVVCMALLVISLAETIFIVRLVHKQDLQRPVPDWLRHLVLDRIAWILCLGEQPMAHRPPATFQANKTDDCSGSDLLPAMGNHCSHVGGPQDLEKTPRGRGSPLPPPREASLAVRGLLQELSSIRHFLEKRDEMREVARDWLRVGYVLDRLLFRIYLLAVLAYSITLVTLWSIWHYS
T3 sequence (Q9JHJ5 whole entry, looked up): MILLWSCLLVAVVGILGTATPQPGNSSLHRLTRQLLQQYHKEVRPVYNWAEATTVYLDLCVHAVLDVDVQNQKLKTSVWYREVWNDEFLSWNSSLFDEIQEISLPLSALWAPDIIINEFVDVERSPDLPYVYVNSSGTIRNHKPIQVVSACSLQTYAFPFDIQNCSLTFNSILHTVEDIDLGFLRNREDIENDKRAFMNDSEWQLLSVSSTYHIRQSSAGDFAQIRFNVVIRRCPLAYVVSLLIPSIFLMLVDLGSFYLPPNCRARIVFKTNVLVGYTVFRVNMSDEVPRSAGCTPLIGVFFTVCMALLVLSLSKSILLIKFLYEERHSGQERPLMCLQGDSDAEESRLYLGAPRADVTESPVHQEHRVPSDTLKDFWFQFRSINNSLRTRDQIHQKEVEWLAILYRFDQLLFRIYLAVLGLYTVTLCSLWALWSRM
Chain of 5-hydroxytryptamine receptor 4 (Rattus norvegicus) (Q62758 whole entry): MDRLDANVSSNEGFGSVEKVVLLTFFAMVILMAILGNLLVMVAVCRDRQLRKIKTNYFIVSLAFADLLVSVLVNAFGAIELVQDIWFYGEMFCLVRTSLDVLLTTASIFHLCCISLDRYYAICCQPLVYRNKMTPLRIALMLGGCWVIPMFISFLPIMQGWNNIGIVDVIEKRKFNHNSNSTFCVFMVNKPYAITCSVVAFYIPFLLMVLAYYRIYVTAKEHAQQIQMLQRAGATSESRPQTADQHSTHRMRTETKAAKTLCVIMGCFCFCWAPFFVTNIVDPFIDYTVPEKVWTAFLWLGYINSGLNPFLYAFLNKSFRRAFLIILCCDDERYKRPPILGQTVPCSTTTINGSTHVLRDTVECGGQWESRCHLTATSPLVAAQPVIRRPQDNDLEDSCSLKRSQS
T1 sequence (Q62758 whole entry): as above
Chain of Beta-2 adrenergic receptor (P07550 whole entry): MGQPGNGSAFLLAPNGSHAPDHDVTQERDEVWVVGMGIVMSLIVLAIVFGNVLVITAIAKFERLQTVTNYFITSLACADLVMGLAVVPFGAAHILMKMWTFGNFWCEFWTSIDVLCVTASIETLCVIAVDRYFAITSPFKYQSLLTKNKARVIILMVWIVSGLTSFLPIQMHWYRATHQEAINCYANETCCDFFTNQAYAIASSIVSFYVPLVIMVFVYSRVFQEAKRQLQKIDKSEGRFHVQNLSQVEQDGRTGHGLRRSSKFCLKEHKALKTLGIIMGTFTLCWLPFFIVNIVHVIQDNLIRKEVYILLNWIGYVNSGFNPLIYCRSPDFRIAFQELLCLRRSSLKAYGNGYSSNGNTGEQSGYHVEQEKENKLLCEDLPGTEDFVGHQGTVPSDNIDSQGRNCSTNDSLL
Chain of Beta-1 adrenergic receptor (P08588 whole entry): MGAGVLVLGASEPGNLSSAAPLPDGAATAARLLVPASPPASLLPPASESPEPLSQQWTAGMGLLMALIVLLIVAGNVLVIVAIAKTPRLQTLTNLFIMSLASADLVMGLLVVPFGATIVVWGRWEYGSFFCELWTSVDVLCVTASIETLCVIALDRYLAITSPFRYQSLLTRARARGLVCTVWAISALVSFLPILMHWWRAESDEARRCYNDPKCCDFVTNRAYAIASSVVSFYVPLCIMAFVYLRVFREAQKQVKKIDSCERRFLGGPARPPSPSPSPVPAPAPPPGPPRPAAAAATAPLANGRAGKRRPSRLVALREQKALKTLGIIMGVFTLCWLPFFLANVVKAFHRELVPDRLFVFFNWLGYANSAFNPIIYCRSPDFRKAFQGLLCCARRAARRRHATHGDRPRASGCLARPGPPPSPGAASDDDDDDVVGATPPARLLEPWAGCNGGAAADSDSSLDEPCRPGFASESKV
Chain of D(1A) dopamine receptor (P21728 whole entry): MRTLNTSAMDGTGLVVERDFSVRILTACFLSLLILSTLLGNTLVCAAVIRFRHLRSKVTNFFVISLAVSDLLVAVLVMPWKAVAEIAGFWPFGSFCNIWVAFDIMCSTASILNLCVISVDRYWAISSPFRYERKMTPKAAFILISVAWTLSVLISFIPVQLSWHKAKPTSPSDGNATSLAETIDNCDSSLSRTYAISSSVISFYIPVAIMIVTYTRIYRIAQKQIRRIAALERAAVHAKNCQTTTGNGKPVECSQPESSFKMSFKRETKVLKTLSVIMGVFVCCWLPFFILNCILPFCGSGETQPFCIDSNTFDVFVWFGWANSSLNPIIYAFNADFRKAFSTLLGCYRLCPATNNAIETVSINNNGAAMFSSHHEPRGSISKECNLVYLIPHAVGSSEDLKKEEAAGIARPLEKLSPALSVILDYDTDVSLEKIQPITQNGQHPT

Regarding `O=C(OC[C@@H]1CCN2CCC[C@@H]12)c1cc(Cl)cn2ccnc12`, the Kb in [1] is 178 nM.
In the case of `COc1cc(N)c(Cl)cc1C(=O)NC[C@H]1CCN2CCC[C@H]12`, the ED50 in the data set on Canis familiaris [2] (setting [23]) came to 1 mg/kg; in the data set with Canis familiaris [5] it was 0.45 mg/kg. This compound displayed an EC50 in data set [3] of 323 nM. The Activity result with Salmonella typhi [4], in the data set on Salmonella typhi [9], in the data set on Salmonella typhi [10], in the data set on Salmonella typhi [11] and in the data set with Salmonella typhi [13] was “Not Active” in each case. Besides, the IC50 at D(2) dopamine receptor is 3900 nM. For the same compound, the inhibition is 18% in data set [6], 79% in data set [7], 87% in data set [8] and 20% in data set [12].
Regarding `Cn1cc(C(=O)NC[C@@H]2CCN3CCC[C@@H]23)c2ccccc21`, the pA2 result in data set [14] is “inactive”.
As for `CC1(C)C(=O)N(C(=O)NC[C@@H]2CCN3CCC[C@@H]23)c2ccccc21`, the Kb in data set [1] is 100 nM.
`COc1cc(N)c(Cl)cc1C(=O)NC[C@@H]1CC[N@@+]2(C)CCC[C@@H]12` yielded an EC50 in data set [3] of 129 nM. In addition, the Ki in data set [15] was determined as 0.35 nM. The same compound gave an inhibition in [16] of 16%.
For the compound `COc1cc(N)c(Cl)cc1C(=O)N[C@H]1CCN2CCC[C@@H]1C2`, the ED50 entry with Canis familiaris [2] (Canis lupus familiaris; Stomach) is “Active”. In addition, the half-maximal effective concentration (EC50) in data set [3] amounted to 98 nM. It took a dose of 0.015 mg/kg to reach the 50% effect level in the data set with Canis familiaris [5] (ED50).
Turning to `Cn1c(C(=O)OC[C@@H]2CCN3CCC[C@@H]23)cc2ccccc21`, in [17], the pA2 entry was “inactive”.
On to `Cc1cnc2c(C(=O)NC[C@@H]3CCN4CCC[C@@H]34)cc(Cl)cn12`, for which the Kb in data set [1] is 81.3 nM.
Regarding `CCOc1cc(N)c(Cl)cc1C(=O)NC[C@@H]1CCN2CCC[C@@H]12`, in [3], the EC50 amounted to 195 nM. In addition, at D(2) dopamine receptor, the IC50 is 5300 nM. The same compound returned a Ki in data set [18] of 25 nM. For the same compound, the values for the inhibition in data set [7] and in data set [8] were 48% and 89%, respectively.
Take `CCc1nc(C(=O)NC[C@@H]2CCN3CCC[C@@H]23)c2ccccn12` (relative stereo): in [1], the Kb was 275 nM.
For the compound `CC(C)n1c(=O)n(C(=O)NC[C@@H]2CCN3CCC[C@@H]23)c2ccccc21` (relative stereo), in [3], the EC50 came out at 374 nM. The Ki in data set [15] worked out at 7 nM; in [18], 20.2 nM. Besides, the inhibition was 0% in data set [19], 87% in data set [8] and 62% in data set [12].
For the compound `CCc1cc(C(=O)NC[C@@H]2CCN3CCC[C@@H]23)c2ccccn12` (relative stereo), the pA2 result in data set [14] is “inactive”.
For `COc1cc(N)c(Cl)cc1C(=O)NC1CCN(CCCOc2ccc(F)cc2)CC1OC` (stereo not drawn) [CISAPRIDE], the ED50 in the data set with Canis familiaris [2] (setting [23]) was 0.03 mg/kg; with Canis familiaris [5], 0.056 mg/kg. The IC50 in data set [20] is greater than 10000 nM; in [21], greater than 10000 nM; at D(1A) dopamine receptor, 1700 nM; in data set [22] it was greater than 1000 nM.
In data set [3], `COc1cc(N)c(Cl)cc1C(=O)OC[C@@H]1CCN2CCC[C@@H]12` displayed an EC50 of 1.5 nM. Besides, the Ki was found to be 0.183 nM in [15] and 51 nM in data set [18]. Also, the IC50 at D(2) dopamine receptor was greater than 10000 nM. Also, the inhibition in [8] amounted to 0%.
For `O=C(OC[C@@H]1CCN2CCC[C@@H]12)c1c[nH]c2ccc(F)cc12`, the Ki in data set [15] is 0.7 nM; in data set [18], 10 nM. In addition, the Kb in data set [1] is 3.16 nM.
`O=C(NC[C@@H]1CCN2CCC[C@@H]12)c1cccn2ccnc12`: the Kb in [1] is 178 nM.
`COc1ccc2[nH]cc(C(=O)OC[C@@H]3CCN4CCC[C@@H]34)c2c1`: the Kb in data set [1] was 70.8 nM.
